Assay results reported in ChEMBL document CHEMBL1141938 (Bioorg Med Chem Lett, 2005).

What was measured:
[1] = target: Human immunodeficiency virus type 1 protease (Human immunodeficiency virus 1, UniProt Q72874)
Description: Inhibitory activity against HIV protease

[2] = tested on: Human immunodeficiency virus; assay: Antiviral activity against 4X HIV strain; format: functional; conditions: Human immunodeficiency virus 1, 4X; read-out: CIC95
[3] = tested on: Human immunodeficiency virus; assay: Antiviral activity against mutant HIV isolate K-60C; format: functional; conditions: Human immunodeficiency virus 1, K-60; read-out: CIC95
[4] = tested on: Human immunodeficiency virus; assay: Antiviral activity against mutant HIV isolate Q-60C; format: functional; conditions: Human immunodeficiency virus 1, Q-60C; read-out: CIC95
[5] = tested on: Human immunodeficiency virus; assay: Antiviral activity in MT4 human T lymphoid cells infected with wild type NL4-3 HIV; format: functional; conditions: Human immunodeficiency virus 1, NL4-3, MT4; read-out: CIC95
[6] = tested on: Human immunodeficiency virus; assay: Antiviral activity against mutant HIV isolate V-18C; format: functional; conditions: Human immunodeficiency virus 1, V-18C; read-out: CIC95
[7] = Oral bioavailability in rat at 2 mg/kg, po; format: ADME, organism-based; conditions: in vivo
[8] = Cmax in rat at 2 mg/kg, po; format: ADME, organism-based; design: dose 2 mg/kg, route oral; conditions: in vivo
Cytochrome P450 2D6 = Cytochrome P450 2D6 (Homo sapiens, UniProt P10635); assay: Inhibitory activity against CYP2D6; format: ADME
Cytochrome P450 2D6, sequence (P10635 whole entry): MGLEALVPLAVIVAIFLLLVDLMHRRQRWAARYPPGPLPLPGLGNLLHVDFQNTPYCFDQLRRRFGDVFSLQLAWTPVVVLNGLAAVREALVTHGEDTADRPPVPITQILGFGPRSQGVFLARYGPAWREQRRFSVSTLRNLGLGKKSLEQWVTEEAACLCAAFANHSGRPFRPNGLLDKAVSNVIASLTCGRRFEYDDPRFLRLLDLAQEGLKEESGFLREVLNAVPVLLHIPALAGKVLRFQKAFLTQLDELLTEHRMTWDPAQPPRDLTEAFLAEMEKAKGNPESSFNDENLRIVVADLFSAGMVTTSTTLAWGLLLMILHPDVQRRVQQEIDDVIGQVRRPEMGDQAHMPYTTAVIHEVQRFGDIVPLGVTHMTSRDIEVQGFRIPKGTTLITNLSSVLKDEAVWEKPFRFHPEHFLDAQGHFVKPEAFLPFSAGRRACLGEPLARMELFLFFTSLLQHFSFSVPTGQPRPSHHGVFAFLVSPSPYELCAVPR

Cytochrome P450 2C9 = Cytochrome P450 2C9 (Homo sapiens, UniProt P11712); assay: Inhibitory activity against CYP2C9; format: ADME
Cytochrome P450 2C9, sequence (P11712 whole entry): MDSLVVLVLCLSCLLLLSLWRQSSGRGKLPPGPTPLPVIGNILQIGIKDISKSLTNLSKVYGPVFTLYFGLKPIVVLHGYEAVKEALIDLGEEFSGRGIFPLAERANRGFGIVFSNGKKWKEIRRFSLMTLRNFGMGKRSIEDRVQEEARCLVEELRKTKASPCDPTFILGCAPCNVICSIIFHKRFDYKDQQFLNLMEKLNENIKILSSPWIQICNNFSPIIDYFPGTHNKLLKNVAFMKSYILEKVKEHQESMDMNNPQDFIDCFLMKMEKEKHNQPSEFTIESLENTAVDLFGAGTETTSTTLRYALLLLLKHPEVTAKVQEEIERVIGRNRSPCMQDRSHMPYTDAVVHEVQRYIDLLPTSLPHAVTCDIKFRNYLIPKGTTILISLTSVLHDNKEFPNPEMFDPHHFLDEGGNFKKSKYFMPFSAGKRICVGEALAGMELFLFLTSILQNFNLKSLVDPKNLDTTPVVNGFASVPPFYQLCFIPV

[9] = Half life in rat at 2 mg/kg, po; format: ADME, organism-based; design: dose 2 mg/kg, route oral; conditions: in vivo
[10] = Plasma clearance in rat at 2 mg/kg, po; format: ADME, organism-based; design: dose 2 mg/kg, route oral
Rattus norvegicus [11] = assay: AUC in rat at 2 mg/kg, po; format: ADME, organism-based, Plasma; design: dose 2 mg/kg, route oral; conditions: in vivo
Cytochrome P450 3A4 = Cytochrome P450 3A4 (Homo sapiens, UniProt P08684); assay: Inhibitory activity against CYP3A4; format: ADME
Cytochrome P450 3A4, sequence (P08684 whole entry): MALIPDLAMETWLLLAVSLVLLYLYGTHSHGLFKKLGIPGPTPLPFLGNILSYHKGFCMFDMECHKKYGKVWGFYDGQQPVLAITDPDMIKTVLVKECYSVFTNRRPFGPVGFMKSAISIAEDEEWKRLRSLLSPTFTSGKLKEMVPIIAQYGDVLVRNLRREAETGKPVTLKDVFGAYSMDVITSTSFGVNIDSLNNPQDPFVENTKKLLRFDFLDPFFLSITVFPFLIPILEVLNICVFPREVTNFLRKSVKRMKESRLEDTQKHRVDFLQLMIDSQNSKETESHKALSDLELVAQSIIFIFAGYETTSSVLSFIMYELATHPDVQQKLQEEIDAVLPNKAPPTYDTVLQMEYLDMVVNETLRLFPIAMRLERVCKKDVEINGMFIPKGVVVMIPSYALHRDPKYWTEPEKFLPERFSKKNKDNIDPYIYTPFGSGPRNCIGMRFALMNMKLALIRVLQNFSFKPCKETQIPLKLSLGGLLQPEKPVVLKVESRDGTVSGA

[12] = Plasma clearance in dog at 10 mg/kg, po; format: ADME, organism-based, Canis lupus familiaris; design: dose 10 mg/kg, route oral
[13] = Oral bioavailability in rat at 10 mg/kg, po; format: ADME, organism-based; conditions: in vivo
[14] = Half life in dog at 10 mg/kg, po; format: ADME, organism-based, Canis lupus familiaris; design: dose 10 mg/kg, route oral; conditions: in vivo
[15] = Half life in rat at 10 mg/kg, po; format: ADME, organism-based; design: dose 10 mg/kg, route oral; conditions: in vivo
[16] = Cmax in rat at 10 mg/kg, po; format: ADME, organism-based; design: dose 10 mg/kg, route oral; conditions: in vivo
[17] = Plasma clearance in rat at 10 mg/kg, po; format: ADME, organism-based; design: dose 10 mg/kg, route oral
Canis familiaris = assay: AUC in dog at 10 mg/kg, po; format: ADME, organism-based, Canis lupus familiaris, Plasma; design: dose 10 mg/kg, route oral; conditions: in vivo
[18] = Cmax in dog at 10 mg/kg, po; format: ADME, organism-based, Canis lupus familiaris; design: dose 10 mg/kg, route oral; conditions: in vivo
[19] = Oral bioavailability in dog at 10 mg/kg, po; format: ADME, organism-based, Canis lupus familiaris; conditions: in vivo
Rattus norvegicus [20] = assay: AUC in rat at 10 mg/kg, po; format: ADME, organism-based, Plasma; design: dose 10 mg/kg, route oral; conditions: in vivo

| Structure (SMILES) | IC50 [1] | IC95 [2] | IC95 [3] | IC95 [4] | IC95 [5] | IC95 [6] | also measured |
| --- | --- | --- | --- | --- | --- | --- | --- |
| O=C(N[C@H]1c2ccccc2OC[C@H]1O)[C@H](Cc1cc2cnccc2s1)C[C@H](O)CN1CCN(Cc2csc(-c3ccc(C(F)(F)F)cc3)n2)C[C@H]1C(=O)NCC(F)(F)F | 0.07 nM | 125 nM | 31.3 nM | 93.8 nM | 26 nM | 375 nM |  |
| Cc1ccncc1-c1ccc(C[C@H](C[C@H](O)CN2CCN(Cc3csc(-c4ccc(F)cc4)n3)C[C@H]2C(=O)NCC(F)(F)F)C(=O)N[C@H]2c3ccccc3OC[C@H]2O)o1 | 0.11 nM | 15.6 nM | 125 nM | 125 nM | < 7.8 nM | 62.5 nM |  |
| O=C(N[C@H]1c2ccccc2OC[C@H]1O)[C@H](Cc1cc2cnccc2s1)C[C@H](O)CN1CCN(Cc2ccc(-c3ccc(Cl)cc3)o2)C[C@H]1C(=O)NCC(F)(F)F | 0.03 nM | 15.6 nM | < 7.8 nM | 31.3 nM | 15.6 nM | 125 nM |  |
| Cc1ccncc1-c1ccc(C[C@H](C[C@H](O)CN2CCN(Cc3ccc(-c4ccc(Cl)cc4)o3)C[C@H]2C(=O)NCC(F)(F)F)C(=O)N[C@H]2c3ccccc3OC[C@H]2O)o1 | 0.08 nM | 31.3 nM | < 7.8 nM | 62.5 nM | 15.6 nM | 125 nM |  |
| O=C(N[C@H]1c2ccccc2OC[C@H]1O)[C@H](Cc1cc2cnccc2s1)C[C@H](O)CN1CCN(Cc2ccc(-c3ccc(Cl)cc3)s2)C[C@H]1C(=O)NCC(F)(F)F | 0.05 nM | 15.6 nM | 31.3 nM | 31.3 nM | 15.6 nM | 125 nM |  |
| Cc1ccncc1-c1ccc(C[C@H](C[C@H](O)CN2CCN(Cc3ccc(-c4ccc(Cl)cc4)s3)C[C@H]2C(=O)NCC(F)(F)F)C(=O)N[C@H]2c3ccccc3OC[C@H]2O)o1 | 0.04 nM | 15.6 nM | 125 nM | 62.5 nM | < 7.8 nM | 62.5 nM |  |
| O=C(N[C@H]1c2ccccc2OC[C@H]1O)[C@H](Cc1cc2ccncc2o1)C[C@H](O)CN1CCN(Cc2ccc(-c3ccc(Cl)cc3)o2)C[C@H]1C(=O)NCC(F)(F)F | 0.05 nM | 31.3 nM | < 7.8 nM | 15.6 nM | < 7.8 nM | 62.5 nM |  |
| Cc1ccncc1-c1ccc(C[C@H](C[C@H](O)CN2CCN(C(C)(C)c3ncc(-c4ccc(Cl)cc4)s3)C[C@H]2C(=O)NCC(F)(F)F)C(=O)N[C@H]2c3ccccc3OC[C@H]2O)o1 | 0.03 nM | 31.3 nM | 15.6 nM | 31.3 nM | 15.6 nM | 250 nM |  |
| CC(C)(c1ncc(-c2ccc(Cl)cc2)o1)N1CCN(C[C@@H](O)C[C@@H](Cc2cc3cnccc3s2)C(=O)N[C@H]2c3ccccc3OC[C@H]2O)[C@H](C(=O)NCC(F)(F)F)C1 | 0.02 nM | < 7.8 nM | < 7.8 nM | < 7.8 nM | < 7.8 nM | < 7.8 nM | bioavailability [7]: 7.3%; Cmax [8]: 52 nM; IC50 (Cytochrome P450 2D6): < 1000 nM; IC50 (Cytochrome P450 2C9): < 1000 nM; half-life [9]: 48 min; CL/F [10]: 111 mL/min/kg; AUC (Rattus norvegicus [11]): 0.36 uMh; IC50 (Cytochrome P450 3A4): < 1000 nM |
| CC(C)(c1ncc(-c2ccc(Cl)cc2)o1)N1CCN(C[C@@H](O)C[C@@H](Cc2cc3ccncc3s2)C(=O)N[C@H]2c3ccccc3OC[C@H]2O)[C@H](C(=O)NCC(F)(F)F)C1 | < 0.02 nM | < 7.8 nM | < 7.8 nM | < 7.8 nM | < 7.8 nM | < 7.8 nM |  |
| CC(C)(c1ncc(-c2ccc(Cl)cc2)o1)N1CCN(C[C@@H](O)C[C@@H](Cc2cc3ccncc3o2)C(=O)N[C@H]2c3ccccc3OC[C@H]2O)[C@H](C(=O)NCC(F)(F)F)C1 | 0.02 nM | < 7.8 nM | < 7.8 nM | < 7.8 nM | < 7.8 nM | 31 nM | CL/F [12]: 23 mL/min/kg; bioavailability [13]: 14%; IC50 (Cytochrome P450 2D6): < 1000 nM; half-life [14]: 60 min; IC50 (Cytochrome P450 2C9): < 1000 nM; half-life [15]: 48 min; Cmax [16]: 180 nM; CL/F [17]: 98 mL/min/kg; AUC (Canis familiaris): 0.39 uMh; Cmax [18]: 2100 nM; bioavailability [19]: 42%; AUC (Rattus norvegicus [20]): 0.29 uMh; IC50 (Cytochrome P450 3A4): < 1000 nM |
| CC(C)(c1ncc(-c2ccc(Cl)cc2)s1)N1CCN(C[C@@H](O)C[C@@H](Cc2cc3cnccc3s2)C(=O)N[C@H]2c3ccccc3OC[C@H]2O)[C@H](C(=O)NCC(F)(F)F)C1 | 0.04 nM | < 7.8 nM | < 7.8 nM | < 7.8 nM | < 7.8 nM | 31.3 nM |  |
| CC(C)(c1ncc(-c2ccc(Cl)cc2)o1)N1CCN(C[C@@H](O)C[C@@H](Cc2cc3c(Cl)cncc3s2)C(=O)N[C@H]2c3ccccc3OC[C@H]2O)[C@H](C(=O)NCC(F)(F)F)C1 | < 0.02 nM | < 7.8 nM | < 7.8 nM | < 7.8 nM | < 7.8 nM | 15.6 nM |  |
| Cc1ccncc1-c1ccc(C[C@H](C[C@H](O)CN2CCN(Cc3ncc(-c4ccc(Cl)cc4)o3)C[C@H]2C(=O)NCC(F)(F)F)C(=O)N[C@H]2c3ccccc3OC[C@H]2O)o1 | 0.03 nM | 62.5 nM | 15.6 nM | 62.5 nM | < 7.8 nM | 125 nM |  |
| CC(C)(C)NC(=O)[C@@H]1CN(Cc2cccnc2)CCN1C[C@@H](O)C[C@@H](Cc1ccccc1)C(=O)N[C@H]1c2ccccc2C[C@H]1O |  | 400 nM | > 1000 nM | > 1000 nM | 50 nM | > 1000 nM |  |
